Data taken from patent US20150141433A1, “N-ARYLMETHYL SULFONAMIDE NEGATIVE MODULATORS OF NR2A” (Mnemosyne Pharmaceuticals, Inc., priority 2013, published 2015).

Biological target: T1, NR1/NR2A (Homo sapiens, UniProt Q05586+Q12879)
T1 construct: host or cells: HEK293 (tetracycline-inducible NR2A expression)
Assay: FDSS Ca2+ influx inhibition assay in HEK293 cells expressing NR1/NR2A
Format: cell-based
Conditions: 3 μM glutamate, 3 μM glycine, 1 mM Ca2+, Ca2+ influx inhibition relative to MK801, read-out: NR2A IC50
Method: Cell Culture and plating: HEK293 cells expressing NR1/NR2A (Chantest, Cleveland, Ohio) were grown to 70-80% confluency as an adherent monolayer in standard tissue culture flasks at 37° C., 5% CO2 per supplier's instructions.
After induction, cell culture medium was removed and cells were rinsed once with Ca^2+ and Mg^2+-free Dulbecco's phosphate buffered saline. Cells were then removed from the flask using TrypLE™ Express (Life Technologies) according to the manufacturer's instructions and collected to 50 ml centrifuge tubes. Following two washes in Ca^27 Mg^2′-free HBSS with 20 mM HEPES (HHnoCa), cells were counted and viability assessed using trypan blue. To load cells with Ca^2′-sensitive dye, they were resuspended in fluo-8 plus Component B (AAT Bioquest Products) diluted in HHnoCa and incubated 15 minutes at 37° C., followed by 30 minutes at room temp (in dark). Cells were then washed and resuspended in HHnoCa to remove extracellular dye and plated in 384-well plates (Falcon, uncoated) at 20,000-30,000 cells/well in a final volume of 25 μL/well.
FDSS Assay: To each well of the plate, 10 μLtest compound, control (MK801) or HHnoCa buffer was added to a final concentration of 10 μM with a final concentration of DMSO of 0.1%. Following 10 minutes pre-incubation in the dark, plates are loaded onto the Hamamatsu FDSS 6000. After collecting baseline fluorescence images, 3 μM glutamate, 3 μM glycine, and 1 mM Ca^2+ in HHnoCa buffer is added to each well, and Ca^2+ is recorded for 3 minutes. Data were processed by computing ratio of fluorescence at the end of data collection to baseline fluorescence to assess degree of Ca^2+ influx inhibition relative to that observed in MK801.

T1 sequence (Q12879 23-1464, other chains not shown): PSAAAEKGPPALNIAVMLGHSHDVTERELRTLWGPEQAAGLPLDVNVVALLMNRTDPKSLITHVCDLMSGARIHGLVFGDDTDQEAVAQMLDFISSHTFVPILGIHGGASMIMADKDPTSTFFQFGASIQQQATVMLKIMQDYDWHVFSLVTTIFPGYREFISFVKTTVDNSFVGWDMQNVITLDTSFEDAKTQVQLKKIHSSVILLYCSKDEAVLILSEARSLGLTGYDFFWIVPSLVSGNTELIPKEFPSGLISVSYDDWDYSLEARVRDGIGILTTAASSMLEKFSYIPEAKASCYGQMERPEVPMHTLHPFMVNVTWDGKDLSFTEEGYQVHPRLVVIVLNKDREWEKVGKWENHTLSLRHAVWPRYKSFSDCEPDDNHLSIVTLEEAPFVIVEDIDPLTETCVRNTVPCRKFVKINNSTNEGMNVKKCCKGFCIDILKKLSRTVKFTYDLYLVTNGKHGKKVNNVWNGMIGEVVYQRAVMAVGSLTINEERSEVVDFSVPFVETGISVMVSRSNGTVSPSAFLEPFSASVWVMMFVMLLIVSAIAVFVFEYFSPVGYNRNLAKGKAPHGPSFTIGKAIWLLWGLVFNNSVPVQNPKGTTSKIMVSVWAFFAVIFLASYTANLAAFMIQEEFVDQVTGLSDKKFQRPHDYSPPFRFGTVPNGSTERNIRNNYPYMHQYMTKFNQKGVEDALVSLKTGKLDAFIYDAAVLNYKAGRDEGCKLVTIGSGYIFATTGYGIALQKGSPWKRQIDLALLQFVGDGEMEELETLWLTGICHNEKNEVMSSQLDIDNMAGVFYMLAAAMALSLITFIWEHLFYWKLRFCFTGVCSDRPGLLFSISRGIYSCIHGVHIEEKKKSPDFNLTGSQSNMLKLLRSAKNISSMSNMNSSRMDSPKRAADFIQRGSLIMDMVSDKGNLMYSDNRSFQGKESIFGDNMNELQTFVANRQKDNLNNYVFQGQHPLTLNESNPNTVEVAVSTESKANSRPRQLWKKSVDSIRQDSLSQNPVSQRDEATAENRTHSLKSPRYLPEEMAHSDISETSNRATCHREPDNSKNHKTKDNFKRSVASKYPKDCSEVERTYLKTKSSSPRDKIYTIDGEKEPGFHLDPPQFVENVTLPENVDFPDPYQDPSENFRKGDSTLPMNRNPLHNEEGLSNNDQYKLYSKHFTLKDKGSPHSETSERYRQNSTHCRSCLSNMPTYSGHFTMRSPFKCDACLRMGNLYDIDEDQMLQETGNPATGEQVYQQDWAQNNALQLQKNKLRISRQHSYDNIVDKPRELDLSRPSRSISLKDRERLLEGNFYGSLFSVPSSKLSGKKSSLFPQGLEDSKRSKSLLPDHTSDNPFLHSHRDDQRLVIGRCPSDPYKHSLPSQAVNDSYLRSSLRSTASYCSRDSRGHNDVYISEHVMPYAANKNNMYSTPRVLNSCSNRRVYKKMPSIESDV

Structure (SMILES)	IC50 [nM]
Cc1csc(CNC(=O)c2cnc(CNS(=O)(=O)c3ccc(F)c(Cl)c3)cn2)n1 [5-(3-chloro-4-fluorobenzenesulfon-amidomethyl)-N-[(4-methyl-1,3-thiazol-2-yl)methyl]pyrazine-2-carboxamide]	≥ 10000
O=C(NCc1cncc(F)c1)c1cnc(CNS(=O)(=O)c2ccc(F)c(Cl)c2)cn1 [5-(3-chloro-4-fluorobenzenesulfon-amidomethyl)-N-[(5-fluoropyridin-3-yl)methyl]pyrazine-2-carboxamide]	1100
Cc1nnc(CNC(=O)c2cnc(CNS(=O)(=O)c3ccc(F)c(Cl)c3)cn2)o1 [5-(3-chloro-4-fluorobenzenesulfon-amidomethyl)-N-[(5-methyl-1,3,4-oxadiazol-2-yl)methyl]pyrazine-2-carboxamide]	2430
Cc1nnc(CNC(=O)c2ccc(CNS(=O)(=O)c3ccc(F)c(Cl)c3)cn2)o1 [5-(3-chloro-4-fluorobenzenesulfon-amidomethyl)-N-[(5-methyl-1,3,4-oxadiazol-2-yl)methyl]pyridine-2-carboxamide]	2830
Cc1cnc(CNC(=O)c2cnc(CNS(=O)(=O)c3ccc(F)c(Cl)c3)cn2)cn1 [5-(3-chloro-4-fluorobenzenesulfon-amidomethyl)-N-[(5-methylpyrazin-2-yl)methyl]pyrazine-2-carboxamide]	1250
COc1ccc(CNC(=O)c2ccc(CNS(=O)(=O)c3ccc(F)c(Cl)c3)cn2)cn1 [5-(3-chloro-4-fluorobenzenesulfon-amidomethyl)-N-[(6-methoxypyridin-3-yl)methyl]pyridine-2-carboxamide]	2000
Cc1ncc(CNC(=O)c2ccc(CNS(=O)(=O)c3cccc(Cl)c3)cn2)s1 [5-(3-chlorobenzenesulfon-amidomethyl)-N-[(2-methyl-1,3-thiazol-5-yl)methyl]pyridine-2-carboxamide]	1040
Cc1ncc(CNC(=O)c2ccc(CNS(=O)(=O)c3ccc(Cl)c(F)c3)cn2)s1 [5-(4-chloro-3-fluorobenzenesulfon-amidomethyl)-N-[(2-methyl-1,3-thiazol-5-yl)methyl]pyridine-2-carboxamide]	7450
Cc1ncc(CNC(=O)c2cnc(CNS(=O)(=O)c3ccc(F)cc3)cn2)s1 [5-(4-fluorobenzenesulfon-amidomethyl)-N-[(2-methyl-1,3-thiazol-5-yl)methyl]pyrazine-2-carboxamide]	5510
Cc1ncc(CNC(=O)c2ccc(CNS(=O)(=O)c3ccc(F)cc3)cn2)s1 [5-(4-fluorobenzenesulfon-amidomethyl)-N-[(2-methyl-1,3-thiazol-5-yl)methyl]pyridine-2-carboxamide]	2840
Cc1ncc(CNC(=O)c2cnc(CNS(=O)(=O)c3cc(Cl)ccc3F)c(C)n2)s1 [5-(5-chloro-2-fluorobenzenesulfon-amidomethyl)-6-methyl-N-[(2-methyl-1,3-thiazol-5-yl)methyl]pyrazine-2-carboxamide]	8060
O=C(NCc1cccnc1)c1ccc(CNS(=O)(=O)c2ccc(F)c(Cl)c2)nc1 [6-(3-chloro-4-fluorobenzenesulfon-amidomethyl)-N-(pyridin-3-ylmethyl)pyridine-3-carboxamide]	11000
C[C@@H](NC(=O)c1ccc(CNS(=O)(=O)c2ccc(F)c(Cl)c2)nc1)c1cncs1 [6-(3-chloro-4-fluorobenzenesulfon-amidomethyl)-N-[(1R)-1-(1,3-thiazol-5-yl)ethyl]pyridine-3-carboxamide]	≥ 10000
Cc1ccncc1CNC(=O)c1ccc(CNS(=O)(=O)c2ccc(F)c(Cl)c2)nc1 [6-(3-chloro-4-fluorobenzenesulfon-amidomethyl)-N-[(4-methylpyridin-3-yl)methyl]pyridine-3-carboxamide]	9750
Cc1ncc(CNC(=O)c2cnc(CNS(=O)(=O)c3cccs3)cn2)s1 [N-[(2-methyl-1,3-thiazol-5-yl)methyl]-5-(thiophene-2-sulfonamidomethyl) pyrazine-2-carboxamide]	3770
Cc1ncc(CNC(=O)c2ccc(CNS(=O)(=O)c3cccs3)cn2)s1 [N-[(2-methyl-1,3-thiazol-5-yl)methyl]-5-(thiophene-2-sulfonamidomethyl) pyridine-2-carboxamide]	4020

Results, then the compound that gave them:

IC50 [nM]	Structure (SMILES)
108	Cc1ccncc1CNC(=O)c1cnc(CNS(=O)(=O)c2ccc(F)c(Cl)c2)cn1 [5-(3-chloro-4-fluorobenzenesulfon-amidomethyl)-N-[(4-methylpyridin-3-yl)methyl]pyrazine-2-carboxamide]
187	Cc1ccncc1CNC(=O)c1ccc(CNS(=O)(=O)c2ccc(F)c(Cl)c2)cn1 [5-(3-chloro-4-fluorobenzenesulfon-amidomethyl)-N-[(4-methylpyridin-3-yl)methyl]pyridine-2-carboxamide]
624	Cc1nnc(CNC(=O)c2cnc(CNS(=O)(=O)c3ccc(F)c(Cl)c3)cn2)s1 [5-(3-chloro-4-fluorobenzenesulfon-amidomethyl)-N-[(5-methyl-1,3,4-thiadiazol-2-yl)methyl]pyrazine-2-carboxamide]
1020	Cc1nnc(CNC(=O)c2ccc(CNS(=O)(=O)c3ccc(F)c(Cl)c3)cn2)s1 [5-(3-chloro-4-fluorobenzenesulfon-amidomethyl)-N-[(5-methyl-1,3,4-thiadiazol-2-yl)methyl]pyridine-2-carboxamide]
39.5	Cc1ncc(CNC(=O)c2cnc(CNS(=O)(=O)c3cccc(Cl)c3)c(C)n2)s1 [5-(3-chlorobenzenesulfon-amidomethyl)-6-methyl-N-[(2-methyl-1,3-thiazol-5-yl)methyl]pyrazine-2-carboxamide]
839	Cc1ncc(CNC(=O)c2cnc(CNS(=O)(=O)c3cccc(Cl)c3)cn2)s1 [5-(3-chlorobenzenesulfon-amidomethyl)-N-[(2-methyl-1,3-thiazol-5-yl)methyl]pyrazine-2-carboxamide]
1020	Cc1ncc(CNC(=O)c2cnc(CNS(=O)(=O)c3ccc(Cl)c(F)c3)c(C)n2)s1 [5-(4-chloro-3-fluorobenzenesulfon-amidomethyl)-6-methyl-N-[(2-methyl-1,3-thiazol-5-yl)methyl]pyrazine-2-carboxamide]
137	Cc1ncc(CNC(=O)c2cnc(CNS(=O)(=O)c3ccc(F)cc3)c(C)n2)s1 [5-(4-fluorobenzenesulfon-amidomethyl)-6-methyl-N-[(2-methyl-1,3-thiazol-5-yl)methyl]pyrazine-2-carboxamide]
790	O=C(NCc1cnccn1)c1ccc(CNS(=O)(=O)c2ccc(F)c(Cl)c2)nc1 [6-(3-chloro-4-fluorobenzenesulfon-amidomethyl)-N-(pyrazin-2-ylmethyl)pyridine-3-carboxamide]
630	Cc1cnc(CNC(=O)c2ccc(CNS(=O)(=O)c3ccc(F)c(Cl)c3)nc2)cn1 [6-(3-chloro-4-fluorobenzenesulfon-amidomethyl)-N-[(5-methylpyrazin-2-yl)methyl]pyridine-3-carboxamide]
108	Cn1ccnc1CNC(=O)c1ccc(CNS(=O)(=O)c2ccc(F)c(Cl)c2)nc1 [6-(3-chloro-4-fluorobenzenesulfon-amidomethyl)-N-[(l-methyl-1H-imidazol-2-yl)methyl]pyridine-3-carboxamide]

Same assay, conditions: binned NR2A inhibition concentration, read-out: Binned Activity

Structure (SMILES)	IC50 [nM]
Cc1csc(CNC(=O)c2cnc(CNS(=O)(=O)c3ccc(F)c(Cl)c3)cn2)n1 [5-(3-chloro-4-fluorobenzenesulfon-amidomethyl)-N-[(4-methyl-1,3-thiazol-2-yl)methyl]pyrazine-2-carboxamide]	> 10000
C[C@@H](NC(=O)c1ccc(CNS(=O)(=O)c2ccc(F)c(Cl)c2)nc1)c1cncs1 [6-(3-chloro-4-fluorobenzenesulfon-amidomethyl)-N-[(1R)-1-(1,3-thiazol-5-yl)ethyl]pyridine-3-carboxamide]	> 10000
